# According to patent US20260355329A1, “PRODRUG LINKER COMPOSITIONS AND METHODS OF USE” (priority 2023, published 2026):
# “Also recorded” adds a separate entry of the source. Peptide text beside a SMILES is read from it. * marks the point of attachment. ACC = NC(=O)Cc1cc(=O)oc2cc(N*)ccc12
# What was measured:
# HL60 cells = experiment: Cell viability assay (MTT) in HL60 cells; format: cell-based; details: Homo sapiens, HL-60, 24 h, 0.07-10 μM, FIG. 14
# Method: Cell Culture: HL-60 cells were cultured at 37 °C in a 5% CO2 atmosphere. The cells were grown in Iscove's Modified Dulbecco's Medium, supplemented with 20% fetal bovine serum (FBS) and 0.1% penicillin-streptomycin. Media was replaced every other day until cells reached the desired confluency.
# Viability Assay: HL-60 cells (4×10^3) were seeded in a 96-well plate in cell culture media (100 μL) for 24 hours at the atmosphere stated above (5% CO2). After incubation, the cells were treated with 10 μL of vehicle or drug (0.07-10 μM, n=6) for 24 hours at 37 °C. Cell viability was assessed using MTT. MTT media (30 μL, 5 mg/mL) was added to each well for 2 hours and plate was centrifuged at 500×g for 5 minutes after, followed by media aspiration. The formazan crystals left were solubilized in DMSO and absorbance (540 nm) was measured using a microplate reader (SpectraMax M5). Data obtained was normalized to the vehicle to generate final values. The graph plotted in FIG. 14 is depicted as the mean±SEM vs. compound concentration.
# [1] = Release of ACC from Ac-Linker-ACC conjugates in mouse serum (serum stability); format: in vitro ADME; details: role: substrate; 50% mouse serum, 8 h
# Method: (§1) With the hit candidate in-hand, scarless cleavage was assessed with the turn-on fluorescent probe 7-amino-4-carbamoylmethylcoumarin (ACC), which only fluoresces when the ACC fluorophore is cleaved without an amino acid scar. To discover a scarless linker for LEHELGN (SEQ ID NO: 7), the following ACC conjugates (FIG. 9) were synthesized and cleavage rates were compared in 50% mouse serum and A. baumannii periplasmic extracts (FIGS. 10 and 11): Ac-LEHELGN-ACC (SEQ ID NO: 8), Ac-LEHELG-ACC (SEQ ID NO: 9), Ac-LEHEL-ACC (SEQ ID NO: 10), Ac-LEHE-ACC (SEQ ID NO: 11), Ac-LEH-ACC (SEQ ID NO: 12), Ac-LE-ACC, and Ac-L-ACC (note: Ac=acetyl).
# To determine how each amino acid contributed to the selectivity of linker LEHELG (SEQ ID NO: 1), an ala scan was conducted. […] The cleavage rates of ala-substituted variants (P1-P6) were determined in mouse serum and in the periplasmic extracts from six strains of A. baumannii (FIG. 12).
# Periplasmic extracts and mouse serum were not diluted prior to use in fluorescence assays and were allowed to undergo only one freeze-thaw cycle prior to use. […] The plate was sealed with a transparent polyolefin silicone film (Thermofisher™ Nuc™ Sealing Tape, 12-565-513) and placed in a plate reader at 37 °C with shaking at 225 rpm for 8 hours. […]
# [2] = system: A. baumannii periplasmic extract; experiment: Release of ACC from Ac-Linker-ACC conjugates in A. baumannii periplasmic extract; format: biochemical; details: role: substrate, 8 h
# Method: as §1
# To determine how each amino acid contributed to the selectivity of linker LEHELG (SEQ ID NO: 1), an ala scan was conducted. Each position of the LEHELG (SEQ ID NO: 1) linker was substituted with a single alanine, the simplest amino acid containing a stereocenter, to create six variants. The P1 position is the amino acid directly adjacent to the cleavage site, which is conjugated to the ACC turn-on fluorophore. The cleavage rates of ala-substituted variants (P1-P6) were determined in mouse serum and in the periplasmic extracts from six strains of A. baumannii (FIG. 12). […]
# Periplasmic extracts and mouse serum were not diluted prior to use in fluorescence assays and were allowed to undergo only one freeze-thaw cycle prior to use. […]
# S. enterica 14028s = experiment: MIC, broth microdilution; format: cell-based; details: Salmonella enterica, MH-II broth, 16 h, 37 °C, dipyridyl 200 μM for siderophore conjugates
# Excerpt: (§2) For full conjugate synthesis, the HMM siderophore (see FIG. 3) was chosen due to its ability to actively transport antibiotics into diverse bacteria. Solithromycin was chosen as a warhead to determine the quality of the cleavable linker in bacteria and to provide insight into the ability of the conjugate to actively transport through membranes. Solithromycin is a broad-spectrum antibiotic (G^+ and […]), and conjugates with this warhead require cleavage for activity, except in cases where the conjugate is actively transported to the cytoplasm, where the intact conjugate engages the target ribosome. When the minimum inhibitory concentration (MIC, minimum amount of drug to inhibit growth) of solithromycin equals the MIC of its cleavable L-linker conjugate, it indicates quantitative drug release, assuming the non-cleavable D-linker conjugate is not active (Table 1). D-linkers are not cleaved by most proteases.
# (§3) Broth and Agar Preparation: Mueller-Hinton II (MH-II, cation-adjusted) broth was prepared from solid MH-II (22 g) and MilliQ H2O (1 L), which was autoclaved in a presterilized 1-L glass bottle. The autoclaved MH-II media contained dipyridyl (DP, 200 μM) for MIC assays involving siderophore conjugates. MH-II agar plates were prepared from autoclaved MH-II (22 g), Bacto agar (17 g), and MilliQ water (1 L). The bacterial strains were obtained from glycerol stocks.
# (§4) Bacteria Culture Preparation: Bacteria were streaked on MH-II agar plates from glycerol stocks. The streaked plates were placed in an incubator at 37 °C without shaking for 18-hours. A sterilized pipet tip was gently touched on the surface of a single colony and added to autoclaved MH-II broth (5 mL) in a sterilized 14-mL culture tube. The cultures were incubated for 18 hours at 37 °C with shaking at 215 rpm. The cultures were diluted 200-fold into autoclaved MH-II broth (4 mL) and incubated at 37 °C with shaking at 215 rpm for 3-5 hours, or until an OD 600 of 0.5 was achieved. An aliquot of the culture (1 mL) was transferred to a sterilized culture tube and diluted with filter-sterilized PBS (~7 mL) until an OD600 of 0.13-0.15 was achieved. An aliquot ([…]) of the cultures was then transferred into MH-II media (15-mL) to achieve a concentration of 1×10^5 cells/mL. The diluted cultures (90 μL/well) were then added to substrate (10 μL at the following concentrations: 640 μg/mL, 320 μg/mL, 160 μg/mL, 80 μg/mL, 40 μg/mL, 20 μg/mL, 10 μg/mL, and 0 μg/mL in sterilized 96-well plates to achieve a final substrate concentration of 64 μg/mL, 32 μg/mL, 16 μg/mL, 8 μg/mL, 4 μg/mL, 2 μg/mL, 1 μg/mL, and 0 μg/mL. The 96-well plates were then sealed with sterilized gas-permeable covers. The plates were incubated at 37 °C with shaking at 215 rpm for 16 hours. Each well condition was prepared in triplicate, and each MIC assay was repeated on a different day. The turbidity of each well was examined visually and the MIC was counted as the lowest concentration that lacked turbidity.
# E. coli DCO = experiment: MIC, broth microdilution; format: cell-based; details: Escherichia coli, MH-II broth, 16 h, 37 °C, dipyridyl 200 μM for siderophore conjugates
# Excerpt: as §2, §3, §4
# E. coli K12 MG1655 = experiment: MIC, broth microdilution; format: cell-based; details: Escherichia coli, MH-II broth, 16 h, 37 °C, dipyridyl 200 μM for siderophore conjugates
# Excerpt: as §2, §3, §4
# K. pneumoniae MGH 78578 = experiment: MIC, broth microdilution; format: cell-based; details: Klebsiella pneumoniae, MGH78578, MH-II broth, 16 h, 37 °C, dipyridyl 200 μM for siderophore conjugates
# Excerpt: as §2, §3, §4
# K. pneumoniae KPPR1 = experiment: MIC, broth microdilution; format: cell-based; details: Klebsiella pneumoniae, MH-II broth, 16 h, 37 °C, dipyridyl 200 μM for siderophore conjugates
# Excerpt: as §2, §3, §4
# S. typhi ATCC 700931 = experiment: MIC, broth microdilution; format: cell-based; details: Salmonella enterica, MH-II broth, 16 h, 37 °C, dipyridyl 200 μM for siderophore conjugates
# Excerpt: as §2, §3, §4
# A baumannii WC487 = experiment: MIC, broth microdilution; format: cell-based; details: Acinetobacter baumannii, MH-II broth, 16 h, 37 °C, dipyridyl 200 μM for siderophore conjugates
# Excerpt: as §2, §3, §4
# E. aerogenes ATCC 13048 = experiment: MIC, broth microdilution; format: cell-based; details: Klebsiella aerogenes, ATCC13048, MH-II broth, 16 h, 37 °C, dipyridyl 200 μM for siderophore conjugates
# Excerpt: as §2, §3, §4
# A. baumannii 5075 = experiment: MIC, broth microdilution; format: cell-based; details: Acinetobacter baumannii, MH-II broth, 16 h, 37 °C, dipyridyl 200 μM for siderophore conjugates
# Excerpt: as §2, §3, §4
smiles,measurement,setting,value
"CO[C@@]12[C@H](COC(N)=O)C3=C(C(=O)C(C)=C(N)C3=O)N1C[C@@H]1N[C@@H]12 [mitomycin C, reference compound]",EC50,HL60 cells,1000 nM
"CC(=O)N[C@@H](CC(C)C)C(=O)N[C@@H](CCC(=O)O)C(=O)N[C@@H](Cc1c[nH]cn1)C(=O)N[C@@H](CCC(=O)O)C(=O)N[C@@H](CC(C)C)C(=O)NCC(=O)Nc1ccc2c(CC(N)=O)cc(=O)oc2c1 [Ac-LEHELG-ACC, Ac-LEHELG(SEQ ID NO: 63)-ACC] (Ac-LEHELG-{ACC})",stability in serum / release of ACC in serum (in words),[1],Minimal release of ACC; also recorded: highest stability in mouse serum compared to all ala-substituted variants
same,cleavage rate / release of ACC in periplasmic extract (in words),[2],cleaving rapidly
"CC(=O)N[C@@H](CC(C)C)C(=O)N[C@@H](CCC(=O)O)C(=O)N[C@@H](C)C(=O)N[C@@H](CCC(=O)O)C(=O)N[C@@H](CC(C)C)C(=O)NCC(=O)Nc1ccc2c(CC(N)=O)cc(=O)oc2c1 [Ac-LEAELG-ACC, Ac-LEAELG(SEQ ID NO: 3)-ACC] (Ac-LEAELG-{ACC})",stability in serum / release of ACC in serum (in words),[1],did not show a significant loss of serum stability relative to the parent peptide
same,cleavage rate / release of ACC in periplasmic extract (in words),[2],dramatically enhanced the cleavage rates in periplasmic extracts
CC[C@H]1OC(=O)[C@@](C)(F)C(=O)[C@H](C)[C@@H](O[C@@H]2O[C@H](C)C[C@H](N(C)C)[C@H]2O)[C@](C)(OC)C[C@@H](C)C(=O)[C@H](C)[C@H]2N(CCCCn3cc(-c4cccc(N)c4)nn3)C(=O)O[C@]12C [solithromycin],MIC,S. enterica 14028s,8 µM
same,MIC,E. coli DCO,< 1 µM
same,MIC,E. coli K12 MG1655,< 1 µM
same,MIC,K. pneumoniae MGH 78578,4 µM
same,MIC,K. pneumoniae KPPR1,4 µM
same,MIC,S. typhi ATCC 700931,8 µM
same,MIC,A baumannii WC487,4 µM
same,MIC,E. aerogenes ATCC 13048,8 µM
same,MIC,A. baumannii 5075,8 µM
